Like-named read-outs stand apart in the source and are kept apart here.
Experiments:
[1] = Plasma protein binding, equilibrium dialysis; type: in vitro ADME
Method: Determination of compounds’ fraction unbound (f u ) in plasma from mouse, rat, and human was conducted in vitro via equilibrium dialysis using HTDialysis membrane plates. Dialysis membranes were hydrated as described by the manufacturer and inserted into the HTD plate, which was assembled and prepared for sample addition by the dispensing of blank buffer (Dulbecco’s Phosphate-Buffered Saline, 100 μL/well) into the trans chamber of each membrane-split well. Each compound was diluted into plasma from each species (5 μM final concentration), which was aliquoted in triplicate in the cis chamber of the prepared HTD plate wells. The HTD plate was sealed and incubated for 6 h at 37 °C. Following incubation, each well (both cis and trans chambers) was transferred (20 μL) to the corresponding wells of a 96-shallow-well (V-bottom) plate. The daughter plates were then matrix-matched (buffer-side wells received an equal volume of plasma, and plasma-side wells received an equal volume of buffer), and an extraction solution (120 μL; acetonitrile containing 50 nM carbamazepine as an internal standard (IS)) was added to all wells of both daughter plates to precipitate protein and extract the test article. The plates were then sealed and centrifuged (3500 rcf) for 10 min at ambient temperature. Supernatant (60 μL) from each well of the daughter plates was then transferred to the corresponding wells of new daughter plates (96-shallow-well, V-bottom) containing water (Milli-Q, 60 μL/well), and the plates were sealed in preparation for liquid chromatography–tandem mass spectrometry (LC-MS/MS) analysis (see below).

hSLO1 = molecular target: T1, hSLO1 (Homo sapiens, UniProt Q12791); assay: SLO1 inhibition in HEK cells; type: cell-based
T1 construct: expressed in transfected cells; host or cells: HEK293
Method: HEK293 cells were transfected with the bicistronic vector pBUD-CE4.1 containing the genes of interest and a gene conferring antibiotic resistance. Cells were exposed to gradients of selection antibiotics, and optimal growth conditions for the stable lines were as follows: SLO3 and γ2 (SLO3-γ2) supplemented with 700 μg/mL Zeocin (Invitrogen); human SLO1 and β1 (SLO1-β1) with 1 mg/mL G418 (Sigma) and 3 μg/mL puromycin (Corning, Thermo Fisher); and human SLO1 and β4 (SLO1-β4) with 250 μg/mL Zeocin and 3 μg/mL puromycin. All cell lines were grown in Dulbecco’s Modified Eagle Medium (Gibco, Thermo Fisher) supplemented with 10% fetal bovine serum, 1% penicillin–streptomycin (Millipore Sigma), and selection antibiotics. To generate cells expressing SLO1 and γ2, stable SLO1-expressing HEK293 cells were transiently transfected with expression vectors for γ2 and green fluorescent protein (GFP) in the presence of lipofectamine (Invitrogen) for 5 h.
The cells were then washed and incubated in supplemented Dulbecco’s Modified Eagle Medium for 48 h before use. Patch-clamp electrophysiology was performed only on cells expressing GFP.
Currents in HEK293 cells were measured in the whole-cell patch-clamp configuration with an Axopatch 200B amplifier, digitized with a Digidata 1440A, and interfaced with Clampex 10.6.0.13 (Molecular Devices). […] An isolated cell was located on an Axiovert 200 microscope (Zeiss), and a gigaohm seal was formed with a borosilicate pipette with resistance between 3 and 6 MΩ and filled with internal solution (140 mM KMeSO3, 10 mM HEPES, 10 mM MES, 1 mM EGTA, pH 7). The seal was then broken by applying a negative pressure. Cells were kept at a holding potential of −60 mV for 50 ms, tested with a stepped voltage protocol from −80 to +150 mV in 10 mV increments for 100 ms, and then dropped to −40 mV for 50 ms with 2.5 s between sweeps. This protocol was used to record currents present with increasing concentration of our compound of interest or 3 μL/mL vehicle (DMSO) in the bath solution. Individual cells were tested with between 1 and 5 concentrations of the compound of interest or until the patch was lost. Currents were allowed to stabilize before the initial recording and after the perfusion solution was changed before recording.

hERG = molecular target: T2, hERG (Homo sapiens, UniProt Q12809); assay: hERG patch clamp electrophysiology (HEK-293-hERG); type: cell-based; conditions: for IC50: whole-cell patch clamp, HEK-293-hERG; for selectivity ratio: pH 7.35, hERG IC50 / hSLO3 IC50, read-out: hERG selectivity [fold] (SLO3 versus hERG)
T2 construct: expressed in transfected cells
Method: Whole-cell patch-clamp electrophysiology was used to record hERG currents from a stably transfected monoclonal cell line expressing human hERG. The HEK-293-hERG cell line was generously provided by Dr. David Weaver (Vanderbilt University). Cells were cultured in a 5% CO2 incubator at 37 °C, dissociated with 0.25% Trypsin-EDTA, and seeded onto 12 mm circular coverslips (Electron Microscopy Sciences, PA, USA) for same-day whole-cell patch-clamp recordings. hERG currents were recorded at room temperature by using an AxoPatch 200B amplifier with Clampex 10.7 software (Molecular Devices, USA). The voltage-clamp protocol consisted of a 4-s step to +30 mV from a −80 mV holding potential, followed by a 4-s step to −40 mV, repeated every 10 s. Data were sampled at 5 kHz and filtered at 1 kHz. Patch pipettes, pulled from 1.5 mm OD thin-walled capillaries (Warner Instruments, MA, USA) using a Sutter P-1000 puller (Sutter Instrument, CA, USA), had resistances of 2–3 MΩ when filled with intracellular solution containing (mM): 135 KCl, 10 HEPES, 1 EGTA, 2 MgCl2, 2 Na2ATP (pH 7.35, adjusted with KOH). The extracellular solution contained (mM): 135 NaCl, 5 KCl, 2 CaCl2, 1 MgCl2, 5 Glucose, 10 HEPES, and 10 Sucrose (pH 7.35, adjusted with NaOH). After establishing stable baseline hERG currents, cells were perfused with compounds at concentrations of 0.03–30 μM until response saturation (typically 2–8 min). Recordings concluded with a 10 μM Quinidine solution to isolate Quinidine-sensitive currents, with compound responses expressed as fractions of this current. Peak “tail” current amplitudes at the beginning of −40 mV steps were analyzed using Clampfit 11.2 (Molecular Devices). IC50 values were calculated by fitting the Hill equation to concentration–response curves (CRCs) using the built-in Y = Bottom + (Top – Bottom)/(1 + (IC50/X)^HillSlope) model (nonlinear regression fit: [Inhibitor] vs response – Variable slope (four parameters)) in GraphPad Prism 10.4 (GraphPad Software).

[2] = human, fraction unbound, equilibrium dialysis, 5 μM, read-out: Plasma Protein Binding (fu) Human
[3] = mouse, equilibrium dialysis, 5 μM, read-out: Plasma Protein Binding (fu) Mouse
[4] = rat, equilibrium dialysis, 5 μM, read-out: Plasma Protein Binding (fu) Rat
[5] = human, HEK-293 cells stably expressing hERG

T1 sequence (Q12791 whole entry): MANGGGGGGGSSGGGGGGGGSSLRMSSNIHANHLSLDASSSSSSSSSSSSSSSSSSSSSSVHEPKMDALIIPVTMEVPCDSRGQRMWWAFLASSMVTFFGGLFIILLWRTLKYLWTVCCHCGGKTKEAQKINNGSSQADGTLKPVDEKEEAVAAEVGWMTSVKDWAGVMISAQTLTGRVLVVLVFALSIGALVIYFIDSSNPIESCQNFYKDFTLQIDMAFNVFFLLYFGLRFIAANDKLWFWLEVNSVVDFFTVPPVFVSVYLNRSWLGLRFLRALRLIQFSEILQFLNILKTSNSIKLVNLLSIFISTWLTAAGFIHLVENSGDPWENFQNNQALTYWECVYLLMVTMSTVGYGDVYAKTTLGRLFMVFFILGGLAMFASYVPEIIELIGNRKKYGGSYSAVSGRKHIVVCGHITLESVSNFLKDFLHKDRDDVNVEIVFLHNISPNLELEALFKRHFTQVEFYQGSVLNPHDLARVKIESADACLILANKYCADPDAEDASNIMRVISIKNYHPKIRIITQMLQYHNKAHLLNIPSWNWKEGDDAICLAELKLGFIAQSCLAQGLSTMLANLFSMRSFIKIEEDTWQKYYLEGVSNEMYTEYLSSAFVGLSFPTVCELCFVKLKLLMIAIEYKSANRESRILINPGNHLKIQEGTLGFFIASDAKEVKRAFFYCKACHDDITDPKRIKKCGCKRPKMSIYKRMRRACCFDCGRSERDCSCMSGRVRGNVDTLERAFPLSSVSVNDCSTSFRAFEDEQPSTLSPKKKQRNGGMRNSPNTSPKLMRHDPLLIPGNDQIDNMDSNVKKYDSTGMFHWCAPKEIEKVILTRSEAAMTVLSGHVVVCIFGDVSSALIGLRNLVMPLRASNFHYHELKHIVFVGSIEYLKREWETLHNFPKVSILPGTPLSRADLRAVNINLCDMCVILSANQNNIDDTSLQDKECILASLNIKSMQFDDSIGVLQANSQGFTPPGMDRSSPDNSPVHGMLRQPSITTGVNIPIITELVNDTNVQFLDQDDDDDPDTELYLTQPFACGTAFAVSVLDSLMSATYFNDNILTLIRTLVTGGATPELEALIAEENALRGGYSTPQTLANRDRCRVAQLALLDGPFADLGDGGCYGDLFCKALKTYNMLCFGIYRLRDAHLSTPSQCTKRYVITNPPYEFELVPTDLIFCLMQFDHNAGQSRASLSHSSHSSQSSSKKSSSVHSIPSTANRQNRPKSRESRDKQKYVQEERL
T2 sequence (Q12809 whole entry): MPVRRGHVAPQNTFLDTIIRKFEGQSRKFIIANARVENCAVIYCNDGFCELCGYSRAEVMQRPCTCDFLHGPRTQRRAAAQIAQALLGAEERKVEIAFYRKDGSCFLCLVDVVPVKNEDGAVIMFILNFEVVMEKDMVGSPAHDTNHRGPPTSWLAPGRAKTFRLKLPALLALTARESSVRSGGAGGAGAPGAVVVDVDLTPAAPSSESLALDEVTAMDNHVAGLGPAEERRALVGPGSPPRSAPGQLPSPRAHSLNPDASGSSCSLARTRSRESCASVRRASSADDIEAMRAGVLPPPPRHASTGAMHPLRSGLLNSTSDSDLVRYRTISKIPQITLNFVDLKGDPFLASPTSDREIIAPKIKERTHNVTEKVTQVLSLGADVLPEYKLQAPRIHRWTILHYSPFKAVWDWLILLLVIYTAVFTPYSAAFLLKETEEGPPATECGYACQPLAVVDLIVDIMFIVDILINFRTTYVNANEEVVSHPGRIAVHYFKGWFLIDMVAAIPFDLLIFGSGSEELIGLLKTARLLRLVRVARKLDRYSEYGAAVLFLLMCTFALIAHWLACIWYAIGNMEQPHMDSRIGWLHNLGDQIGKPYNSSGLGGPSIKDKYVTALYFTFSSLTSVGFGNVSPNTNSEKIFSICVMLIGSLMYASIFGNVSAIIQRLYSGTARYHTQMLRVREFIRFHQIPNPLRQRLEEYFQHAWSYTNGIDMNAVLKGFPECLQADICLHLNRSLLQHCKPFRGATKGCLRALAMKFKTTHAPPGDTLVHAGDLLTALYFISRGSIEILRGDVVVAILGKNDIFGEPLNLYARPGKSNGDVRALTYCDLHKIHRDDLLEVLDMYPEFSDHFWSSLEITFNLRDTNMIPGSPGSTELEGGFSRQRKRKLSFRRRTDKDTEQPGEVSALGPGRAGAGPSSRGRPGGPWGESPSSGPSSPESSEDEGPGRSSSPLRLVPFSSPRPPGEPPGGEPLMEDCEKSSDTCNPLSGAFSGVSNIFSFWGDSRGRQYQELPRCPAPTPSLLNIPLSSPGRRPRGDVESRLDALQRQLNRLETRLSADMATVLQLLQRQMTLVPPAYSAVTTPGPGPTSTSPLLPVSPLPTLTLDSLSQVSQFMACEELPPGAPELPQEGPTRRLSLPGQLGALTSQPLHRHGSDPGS

fraction unbound at 6 h, 5 μM [1, 2]	fraction unbound at 6 h, 5 μM [1, 3]	fraction unbound at 6 h, 5 μM [1, 4]	IC50 (hSLO1)	SLO1 selectivity (fold selective for SLO3) (hSLO1; SLO1 IC50 / hSLO3 IC50)	Structure (SMILES)	fraction unbound at 6 h, 5 μM ([1]; human, fraction unbound as percent, read-out: fu in human plasma)	fraction unbound at 6 h, 5 μM ([1]; mouse, read-out: fu in mouse plasma)	fraction unbound at 6 h, 5 μM ([1]; rat, read-out: fu in rat plasma)	inhibition at 30 µM (hSLO1; HEK293, read-out: HEK hSLO1 % inhib. at 30 μM)	IC50 (hERG; human, HEK-293 cells stably expressing hERG, pH 7.35)	IC50 (hERG)	selectivity ratio (hERG; [5])	HEK hSLO1 % inhib. at 30 μM (hSLO1; 30 μM)
			109 µM	802 fold	Cc1cc(Cl)cc2sc(OC3CCN(C(=O)CCCS(=O)(=O)c4cccc(Br)c4)CC3F)nc12 (stereo not drawn) [VU6045330]						73.3 µM	555	
0.001	0.004	0.002			Cc1cc(Cl)cc2sc(O[C@@H]3CCN(C(=O)CCCS(=O)(=O)c4cccc(Br)c4)C[C@@H]3F)nc12 [VU6047608]								
0.002	0.008	0.004			Cc1cc(Cl)cc2sc(O[C@H]3CCN(C(=O)CCCS(=O)(=O)c4cccc(Br)c4)C[C@@H]3F)nc12 [VU6047609]						56 µM		
0.002	0.004	0.004			Cc1cc(Cl)cc2sc(O[C@@H]3CCN(C(=O)CCCS(=O)(=O)c4cccc(Br)c4)C[C@H]3F)nc12 [VU6047607]						17 µM		

Structure (SMILES)	fraction unbound at 6 h, 5 μM [1, 2]	fraction unbound at 6 h, 5 μM [1, 3]	fraction unbound at 6 h, 5 μM [1, 4]	IC50 (hSLO1)	SLO1 selectivity (fold selective for SLO3) (hSLO1; SLO1 IC50 / hSLO3 IC50)	fraction unbound at 6 h, 5 μM ([1]; human, fraction unbound as percent, read-out: fu in human plasma)	fraction unbound at 6 h, 5 μM ([1]; mouse, read-out: fu in mouse plasma)	fraction unbound at 6 h, 5 μM ([1]; rat, read-out: fu in rat plasma)	inhibition at 30 µM (hSLO1; HEK293, read-out: HEK hSLO1 % inhib. at 30 μM)	IC50 (hERG; human, HEK-293 cells stably expressing hERG, pH 7.35)	IC50 (hERG)	selectivity ratio (hERG; [5])	HEK hSLO1 % inhib. at 30 μM (hSLO1; 30 μM)
Cc1cc(Cl)cc2sc(O[C@H]3CCN(C(=O)CCCS(=O)(=O)c4cccc(Br)c4)C[C@H]3F)nc12 [VU6047606]	0.001	0.0002	0.001			< 0.01	< 0.01	< 0.01	10%	12.7 µM	12 µM		
O=C(c1ccc(OCc2ccc(OC(F)(F)F)cc2)cc1)N1CCN(c2ccc(C(F)(F)F)cn2)CC1 [VU6032735]	0.0005	0.012	0.024								28.3 µM	172	No inhibition
